In US6376497B1, “Antifungal azole derivatives having a fluorinated vinyl group and process for preparing same” (Korea Research Institute of Chemical Technology, priority 1999, dated 2002):
Converted amounts (≈) assume the structure as drawn.

How the values were obtained:
Experiment in all cases: In vitro antifungal activity, microbroth dilution MIC
Assay type in all cases: cell-based
[1] = system: Candida albicans IFO. 1385; conditions: 4 to 48 hours; for Minimal inhibitory concentration(MIC), C. albicans IFO. 1385: RPMI-1640, 35° C., no growth observed; for Minimal inhibitory concentration (MIC): C. albicans IFO. 1385, RPMI-1640, 35° C.
How it was run: (§1)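 Broth microdilution adapted from NCCLS M27, in RPMI-1640 with 0.165 M MOPS, pH 7.0. Yeast or mould inoculum at 2×10^3 CFU/ml was mixed 1:1 with DMSO-derived compound solutions (200 to 0.10 μg/ml before mixing) and incubated at 35 °C for 4 to 48 h. MIC was the concentration showing no growth.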

[2] = system: Candida parapsitosis A. 7330; conditions: 4 to 48 hours; for Minimal inhibitory concentration(MIC), C. parapsitosis A. 7330: RPMI-1640, 35° C., no growth observed; for Minimal inhibitory concentration (MIC): C. parapsitosis A. 7330, RPMI-1640, 35° C.
How it was run: as §1

[3] = system: Candida tropicalis A. 13803; conditions: 4 to 48 hours; for Minimal inhibitory concentration(MIC), C. tropicalis A. 13803: RPMI-1640, 35° C., no growth observed; for Minimal inhibitory concentration (MIC): C. tropicalis A. 13803, RPMI-1640, 35° C.
How it was run: as §1

[4] = system: Cryptococcus neoformans IFM. 40092; conditions: 4 to 48 hours; for Minimal inhibitory concentration(MIC), Cry. neoformans IFM. 40092: RPMI-1640, 35° C., no growth observed; for Minimal inhibitory concentration (MIC): Cry. neoformans IFM. 40092, RPMI-1640, 35° C.
How it was run: as §1

[5] = system: Torulopsis glabrata B. 16205; conditions: 4 to 48 hours; for Minimal inhibitory concentration(MIC), T. glabrata B. 16205: RPMI-1640, 35° C., no growth observed; for Minimal inhibitory concentration (MIC): T. glabrata B. 16205, RPMI-1640, 35° C.
How it was run: as §1

[6] = system: Aspergillus furnigatus B. 19119; conditions: 4 to 48 hours; for Minimal inhibitory concentration(MIC), A furnigatus B. 19119: RPMI-1640, 35° C., no growth observed; for Minimal inhibitory concentration (MIC): A furnigatus B. 19119, RPMI-1640, 35° C.
How it was run: as §1

[7] = system: Trichophyton mentagrophytes B. 32663; conditions: 4 to 48 hours; for Minimal inhibitory concentration(MIC), T. mentagrophytes B. 32663: RPMI-1640, 35° C., no growth observed; for Minimal inhibitory concentration (MIC): T. mentagrophytes B. 32663, RPMI-1640, 35° C.
How it was run: as §1

[8] = system: Candida albicans A. 10231; conditions: 4 to 48 hours; for Minimal inhibitory concentration(MIC), C. albicans A. 10231: RPMI-1640, 35° C., no growth observed; for Minimal inhibitory concentration (MIC): C. albicans A. 10231, RPMI-1640, 35° C.
How it was run: as §1

[9] = system: Cryptococcus neoformans B. 42419; conditions: 4 to 48 hours; for Minimal inhibitory concentration(MIC), Cry. neoformans B. 42419: RPMI-1640, 35° C., no growth observed; for Minimal inhibitory concentration (MIC): Cry. neoformans B. 42419, RPMI-1640, 35° C.
How it was run: as §1

[10] = system: Candida krusei K. 11655; conditions: 4 to 48 hours; for Minimal inhibitory concentration(MIC), C. krusei K. 11655: RPMI-1640, 35° C., no growth observed; for Minimal inhibitory concentration (MIC): C. krusei K. 11655, RPMI-1640, 35° C.
How it was run: as §1

[11] = system: Aspergillus niger A. 16404; conditions: 4 to 48 hours; for Minimal inhibitory concentration(MIC), A. niger A. 16404: RPMI-1640, 35° C., no growth observed; for Minimal inhibitory concentration (MIC): A. niger A. 16404, RPMI-1640, 35° C.
How it was run: as §1

[12] = system: Cryptococcus neoformans A. 34144; conditions: 4 to 48 hours; for Minimal inhibitory concentration(MIC), Cry. neoformans A. 34144: RPMI-1640, 35° C., no growth observed; for Minimal inhibitory concentration (MIC): Cry. neoformans A. 34144, RPMI-1640, 35° C.
How it was run: as §1

[13] = system: Candida albicans C1-2; conditions: 4 to 48 hours; for Minimal inhibitory concentration(MIC), C. albicans C1-2: RPMI-1640, 35° C., no growth observed; for Minimal inhibitory concentration (MIC): C. albicans C1-2, RPMI-1640, 35° C.
How it was run: as §1

[14] = system: Trichophyton mentagrophytes A. 9129; conditions: 4 to 48 hours; for Minimal inhibitory concentration(MIC), T. mentagrophytes A. 9129: RPMI-1640, 35° C., no growth observed; for Minimal inhibitory concentration (MIC): T. mentagrophytes A. 9129, RPMI-1640, 35° C.
How it was run: as §1

[15] = system: Candida pseudotropicalis K. 11658; conditions: 4 to 48 hours; for Minimal inhibitory concentration(MIC), C. pseudotropicalis K. 11658: RPMI-1640, 35° C., no growth observed; for Minimal inhibitory concentration (MIC): C. pseudotropicalis K. 11658, RPMI-1640, 35° C.
How it was run: as §1

| Minimal inhibitory concentration(MIC), C. albicans IFO. 1385 [1] [µg/mL] | Minimal inhibitory concentration(MIC), C. parapsitosis A. 7330 [2] [µg/mL] | Minimal inhibitory concentration(MIC), C. tropicalis A. 13803 [3] [µg/mL] | Minimal inhibitory concentration(MIC), Cry. neoformans IFM. 40092 [4] [µg/mL] | Minimal inhibitory concentration(MIC), T. glabrata B. 16205 [5] [µg/mL] | Minimal inhibitory concentration(MIC), A furnigatus B. 19119 [6] [µg/mL] | Minimal inhibitory concentration(MIC), T. mentagrophytes B. 32663 [7] [µg/mL] | Minimal inhibitory concentration(MIC), C. albicans A. 10231 [8] [µg/mL] | Minimal inhibitory concentration(MIC), Cry. neoformans B. 42419 [9] [µg/mL] | Minimal inhibitory concentration(MIC), C. krusei K. 11655 [10] [µg/mL] | Minimal inhibitory concentration(MIC), A. niger A. 16404 [11] [µg/mL] | Minimal inhibitory concentration(MIC), Cry. neoformans A. 34144 [12] [µg/mL] | Minimal inhibitory concentration(MIC), C. albicans C1-2 [13] [µg/mL] | Minimal inhibitory concentration(MIC), T. mentagrophytes A. 9129 [14] [µg/mL] | Minimal inhibitory concentration(MIC), C. pseudotropicalis K. 11658 [15] [µg/mL] | Minimal inhibitory concentration (MIC) [1] [µg/mL] | Minimal inhibitory concentration (MIC) [2] [µg/mL] | Minimal inhibitory concentration (MIC) [3] [µg/mL] | Minimal inhibitory concentration (MIC) [4] | Minimal inhibitory concentration (MIC) [5] [µg/mL] | SMILES | further results |
| --- | --- | --- | --- | --- | --- | --- | --- | --- | --- | --- | --- | --- | --- | --- | --- | --- | --- | --- | --- | --- | --- |
| 3.13 | 1.56 | >100 | 0.20 | >100 | >100 | 12.5 | >100 | 0.78 | 1.56 | >100 | 0.78 | >100 | 25.0 | 1.56 | – | – | – | – | – | FC(=C(c1ccc(C(F)(F)F)cc1)C(F)(F)F)N1CCN(c2ccc(OCC3COC(Cn4ccnc4)(c4ccc(Cl)cc4Cl)O3)cc2)CC1 (mixture of isomers) [Ex. 130] | – |
| – | – | – | – | – | – | – | – | – | – | – | – | – | – | – | 0.20 | 6.25 | 25.0 | ≦0.10 μg/ml | 6.25 | FC(=Cc1ccc(Cl)cc1)OCC1COC(Cn2ccnc2)(c2ccc(F)cc2F)O1 (mixture of isomers) [Ex. 47] | Minimal inhibitory concentration (MIC) [6]: 1.56 µg/mL; Minimal inhibitory concentration (MIC) [7]: ≦0.10 μg/ml; Minimal inhibitory concentration (MIC) [8]: 12.5 µg/mL; Minimal inhibitory concentration (MIC) [9]: 0.78 µg/mL; Minimal inhibitory concentration (MIC) [10]: 12.5 µg/mL; Minimal inhibitory concentration (MIC) [11]: 6.25 µg/mL; Minimal inhibitory concentration (MIC) [12]: 0.78 µg/mL; Minimal inhibitory concentration (MIC) [13]: 12.5 µg/mL; Minimal inhibitory concentration (MIC) [14]: 0.39 µg/mL; Minimal inhibitory concentration (MIC) [15]: 6.25 µg/mL |
| – | – | – | – | – | – | – | – | – | – | – | – | – | – | – | 0.78 (≈ 1.47 µM) | >100 | 25.0 (≈ 47.1 µM) | 0.39 µg/mL (≈ 0.734 µM) | 12.5 (≈ 23.5 µM) | Cc1ccc(C(=C(F)OCC2COC(Cn3ccnc3)(c3ccc(Cl)cc3Cl)O2)C(F)(F)F)cc1 (stereo not drawn) [Ex. 21] | Minimal inhibitory concentration (MIC) [6]: 50.0 µg/mL (≈ 94.1 µM); Minimal inhibitory concentration (MIC) [7]: 6.25 µg/mL (≈ 11.8 µM); Minimal inhibitory concentration (MIC) [8]: 6.25 µg/mL (≈ 11.8 µM); Minimal inhibitory concentration (MIC) [9]: 1.56 µg/mL (≈ 2.94 µM); Minimal inhibitory concentration (MIC) [10]: >100 µg/mL; Minimal inhibitory concentration (MIC) [11]: 100 µg/mL (≈ 188 µM); Minimal inhibitory concentration (MIC) [12]: 0.78 µg/mL (≈ 1.47 µM); Minimal inhibitory concentration (MIC) [13]: 6.25 µg/mL (≈ 11.8 µM); Minimal inhibitory concentration (MIC) [14]: 12.5 µg/mL (≈ 23.5 µM); Minimal inhibitory concentration (MIC) [15]: 100 µg/mL (≈ 188 µM) |
| 6.25 | >100 | >100 | 0.78 | >100 | 100 | >100 | 100 | 1.56 | >100 | >100 | 1.56 | 100 | 100 | >100 | – | – | – | – | – | FC(=Cc1cccc(Cl)c1)Oc1ccc(OCC2COC(Cn3ccnc3)(c3ccc(Cl)cc3Cl)O2)cc1 (mixture of isomers) [Ex. 91] | – |
